From ChEMBL document CHEMBL1811792, “Ligand-based modelling followed by synthetic exploration unveil novel glycogen phosphorylase inhibitory leads” (Bioorg Med Chem, 2011) come the findings set out here.

Test [1] deals with T1, Glycogen phosphorylase, muscle form (Oryctolagus cuniculus) (UniProt P00489).
T1 sequence (whole entry): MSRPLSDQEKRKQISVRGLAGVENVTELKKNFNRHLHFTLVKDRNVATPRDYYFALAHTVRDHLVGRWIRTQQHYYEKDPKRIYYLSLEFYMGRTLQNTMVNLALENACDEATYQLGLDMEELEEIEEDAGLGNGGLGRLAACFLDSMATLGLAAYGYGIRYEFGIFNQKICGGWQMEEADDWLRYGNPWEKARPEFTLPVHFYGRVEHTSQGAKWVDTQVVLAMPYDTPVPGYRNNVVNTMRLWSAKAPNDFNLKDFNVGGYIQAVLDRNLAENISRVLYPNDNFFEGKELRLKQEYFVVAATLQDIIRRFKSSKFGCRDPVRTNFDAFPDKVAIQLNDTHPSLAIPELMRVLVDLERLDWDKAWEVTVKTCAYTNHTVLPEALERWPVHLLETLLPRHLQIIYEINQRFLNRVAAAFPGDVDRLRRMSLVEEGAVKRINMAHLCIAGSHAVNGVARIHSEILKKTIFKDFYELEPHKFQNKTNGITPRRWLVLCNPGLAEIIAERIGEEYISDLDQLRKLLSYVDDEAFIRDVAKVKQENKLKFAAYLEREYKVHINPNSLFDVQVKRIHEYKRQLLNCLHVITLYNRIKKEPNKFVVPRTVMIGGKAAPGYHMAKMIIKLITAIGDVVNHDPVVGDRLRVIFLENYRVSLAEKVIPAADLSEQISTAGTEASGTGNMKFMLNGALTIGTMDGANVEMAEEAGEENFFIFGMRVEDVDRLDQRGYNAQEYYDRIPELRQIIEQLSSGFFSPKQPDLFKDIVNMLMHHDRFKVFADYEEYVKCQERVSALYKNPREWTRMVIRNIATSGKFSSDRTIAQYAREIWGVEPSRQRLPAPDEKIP
The experiment in a line: Inhibition of rabbit muscle glycogen phosphorylase […] assessed as release of phosphate from glucose-1- phosphate at 10 uM after 20 mins.

The target of test [2] is T2, Glycogen phosphorylase, muscle form (Oryctolagus cuniculus, UniProt P00489).
T2 sequence (P00489 whole entry): T1 sequence (whole entry)
As to the kind of experiment: Inhibition of rabbit muscle glycogen phosphorylase […] assessed as release of phosphate from glucose-1- phosphate after 20 mins.

Molecules are shown by their SMILES.

In general, inhibition refers to the relative decrease from the control value, in per cent. A word on the IC50: it is the concentration that gives 50% inhibition.

For `O=C(CC(=O)NCc1ccccc1)NCc1ccccc1`, the inhibition in test [1] came out at 1%.
Regarding `Cc1cc(S(=O)(=O)Nc2nnc3c4ccccc4ccn23)c(S)cc1Cl`, the IC50 in test [2] turned out to be 7.5 µM. For the same molecule, the inhibition in test [1] amounted to 42%.
As to `COC(=O)c1ccccc1NC(=O)Nc1ccc(SC)cc1`, the inhibition in test [1] is 7%.
As for `Cc1cc(S(=O)(=O)Nc2nnc3c(C(F)(F)F)cc(Cl)cn23)c(S)cc1Cl`, the IC50 in test [2] was found to be 5.9 µM. In test [1], the inhibition came to 53%.
For the molecule `Cc1ccc(S(=O)(=O)CC2CCc3ccccc3C2=O)cc1` (stereo unspecified), the IC50 in test [2] is 16.5 µM. In addition, in test [1], the inhibition was determined as 49%.
Turning to `COC(=O)c1ccccc1NC(=O)Nc1cccc(OC)c1`, in test [1], the inhibition came to 12%.
On the same count and under the same terms, the same measure for `CN(C)c1ccc(/C=C/C(=O)c2cc(Cl)ccc2O)cc1`: 25%; for `COc1ccc2cc(-c3ccc(OC)c(OC)c3)c(=O)oc2c1`: 24%; for `Cc1ccccc1NC(=O)CC(=O)Nc1ccccc1C`: 2%.
The same measure, in the same setting: the same measure for `CCOC(=O)C(=O)CC(=O)c1ccc(OC)cc1`: 34%; for `CSc1cccc(NC(=O)Nc2ccccc2C(N)=O)c1`: 36%.
On the same count and under the same terms, under `CCOc1ccc(NC(=O)c2cc3ccccc3cc2O)cc1` stands 22%.
In the case of `Cc1ccccc1NC(=O)C(=O)Nc1ccccc1C`, the IC50 in test [2] came to 5.4 µM. For the same molecule, in test [1], the inhibition was found to be 55%.
As to `COc1ccccc1NC(=O)C(=O)Nc1ccccn1`, the inhibition in test [1] was 5%.
The same measure, in the same setting: the same measure for `C/C=C/c1cc(OC)c2c(c1)[C@H](C)[C@@H](c1ccc(O)c(OC)c1)O2`: 8%.
Same read-out and setting: under `Cc1cccc(NC(=O)CC(=O)Nc2cccc(C)c2)c1` stands 4%.
On the same count and under the same terms, the same measure for `CSc1ccc(NC(=O)Nc2ccccc2C(N)=O)cc1`: 17%; for `NC(=O)c1ccccc1NC(=O)COc1ccc(Cl)cc1`: 38%.
Take `Cc1cc(S(=O)(=O)Nc2nc3ccccc3[nH]2)c(S)cc1Cl`: the IC50 in test [2] worked out at 6.9 µM. Also, the inhibition in test [1] was 45%.
For the molecule `O=C1Oc2ccccc2N/C1=C/C(=O)c1ccc(Cl)cc1`, in test [1], the inhibition came to 26%.
On the same count and under the same terms, the same measure for `CSc1ccc(NC(=O)C2CCCCC2C(=O)O)cc1` (stereo unspecified): 17%.
